Results as given in patent US11174518B2, “Method of classifying and diagnosing cancer” (Cedars-Sinai Medical Center, priority 2015, dated 2021).

Test system: circulating tumor cells (CTC) from patients with CRPC
Assay: Enzalutamide resistance of patient CTCs assigned to PCS subtypes by the 37-gene classifier
Assay type: in vivo, human
Details: for Enzalutamide resistance / Enzalutamide resistance: proportion of CTCs from patients with enzalutamide-resistant tumors: patient CTCs
Description: A random forest machine learning algorithm was employed to develop a diagnostic gene panel. For parameter estimation and training the model, we used the merged dataset. Initially, the model comprised of the 428 SEGs as a set of predictors and subtype label of the merged dataset was used as a response variable for model training. […] We then permuted the values for each gene across every sample and measured how much worse MSE became after the permutation. […] We analyzed single-cell RNA-seq data from 77 intact CTCs isolated from 13 patients (Miyamoto D T, Zheng […], Lee R J, Zhu H, Broderick K T, et al. RNA-Seq of single prostate CTCs implicates noncanonical Wnt signaling in antiandrogen resistance. Science 2015; 349:1351-6). Prior to the clustering analysis to investigate the expression patterns of these CTC data, the normalized read counts as read-per-million (RPM) mapped reads were transformed on a log 2 scale for each gene.

CNC(=O)c1ccc(N2C(=S)N(c3ccc(C#N)c(C(F)(F)F)c3)C(=O)C2(C)C)cc1F [Enzalutamide, enzalutamide]
OR for CTCs from patients with radiographic and/or PSA progression during enzalutamide therapy (GROUP II CTCs (high expression of PCS1-enriched genes), 5 of the 7 CTCs, 95% confidence interval 0.49-6.06): 1.74 | Enzalutamide resistance (PCS1 subtype): Yes | Enzalutamide resistance: proportion of CTCs from patients with enzalutamide-resistant tumors (PCS1 subtype (7 CTCs out of 12)): 58% | Enzalutamide resistance (PCS2 subtype): No | Enzalutamide resistance: proportion of CTCs from patients with enzalutamide-resistant tumors (PCS2 subtype (5 CTCs out of 65)): 8%
